Data: US5849737A, “Compositions and methods for treating pain” (priority 1995, dated 1998)
“Also recorded” adds a separate entry of the source. Read-outs that look alike come from different tables or passages of the source.

How the values were obtained:
[1] = cited from earlier work
[2] = tested on: tactile allodynia (paw withdrawal thresholds); assay: Mechanical allodynia after single i.p. dose in DA rats (left L5/L6 spinal nerve ligation); format: in vivo
P450 PA(P45OIA2) enzyme = details: lidocaine metabolite formation; cited from earlier work
[3] = tested on: tactile allodynia (paw withdrawal thresholds); assay: Tactile allodynia (50% paw withdrawal threshold, von Frey) after intravenous drug, L5/L6 spinal nerve ligated rats; format: in vivo, Male Harlan Sprague-Dawley rats
Source text: For intravascular access, external jugular catheters were fashioned from PE-50 tubing and inserted into an external jugular vein under halothane/oxygen anesthesia. Arterial catheters were also fashioned from PE-50 with a small bouton 1 cm from the intravascular end for suture securing; they were inserted into a carotid artery, taking care to spare the surrounding nerves. All catheters were flushed with heparinized saline (10 U/ml) and tunneled subcutaneously to emerge at the posterior base of the neck, and capped when not in use. […] Rats were placed in a plastic cage with an open wire mesh bottom and allowed to accommodate for approximately fifteen minutes. A series of 8 von Frey filaments with logarithmically incremental stiffness (0.41, 0.70, 1.20, 2.00, 3.63, 5.50, 8.50, and 15.10 g) (Stoelting, Wood Dale, Ill.) was used to determine the 50% threshold for paw withdrawal to light mechanical stimuli (PWT). In brief, von Frey hairs were sequentially applied using an up-and-down paradigm to the left mid-plantar hindpaw with sufficient force to cause slight filament buckling. Positive responses were noted if the paw was sharply withdrawn. […] Otherwise, PWT were calculated by noting the stimulus level at which the first change in behavior occurred, collecting four additional responses to the continued up-and-down oscillation of stimulus presentation around the response threshold, and interpolating the 50% response threshold. […] The following equation was used to compute %MPE: [formula] Plasma drug levels and PWT were correlated using linear regression. Serially measured PWT and %MPE were compared using repeated measures ANOVA.

[4] = DA rats; some species of rats; cited from earlier work
Solubility = format: physicochemical; details: IT vehicle 10% DMSO, 25% propylene glycol, 25% ethanol, 40% saline; injected volume 10 μl
Source text: The free base forms of the compounds of general formula I are not water-soluble; for example, it was necessary to dissolve the free base of 3-hydroxylidocaine in a vehicle containing an empirically determined mixture of ethanol, dimethyl sulfoxide, propylene glycol and saline for application to the rat spinal cord. The physiologically-acceptable salt forms of the compounds of general formula I employed in accordance with the present invention, in contrast, are generally water-soluble to at least some degree, and the solubility properties thereof can be in many cases improved by conjugation. Unlike the free base forms of the compounds of general formula I, the salt forms may be administered by a variety of known routes [e.g., oral intravenous, intrathecal, local (e.g., intraneuromal), epidural, transdermal, etc.] as would be readily appreciated by those skilled in the art. As is conventional practice in the art, the active agent of general formula I is typically administered in a pharmaceutically acceptable carrier or excipient (e.g., saline).

[5] = tested on: tactile allodynia (paw withdrawal thresholds); assay: Tactile allodynia (50% paw withdrawal threshold, von Frey) after intrathecal drug, L5/L6 spinal nerve ligated rats; format: in vivo, Male Harlan Sprague-Dawley rats
Description: Male Harlan Sprague-Dawley rats were used (100-200 g). Rats were housed 2-3 to a cage with corn cob bedding and Purina rat chow and water ad libitum, in a standard facility with a 12 h/ 12 h day/night cycle. After surgical procedures involving chronic indwelling catheter insertion, animals were housed singly to prevent catheter damage.
Rats were allowed to recover 5-7 days before further testing or surgeries.
The catheters were 9 cm in intrathecal length and terminated near the lumbar enlargement. The rostral 3 cm of catheter was tunneled under the skin to externalize between the ears. Rats with neurologic deficits were discarded.
Monoethylglycinexylidide (MEGX) was dissolved in physiologic saline; 3-hydroxylidocaine (3-OH L) was dissolved in DMSO for intravenous administration.
Intravenous drugs were delivered to awake, unrestrained rats by slow infusion using a syringe pump (Harvard apparatus 22). Intrathecal drugs were delivered to awake, briefly restrained rats in a volume of 10 μl, followed by 10 μl of vehicle flush, using a calibrated tubing extension with a 30-gauge adapter fitting the implanted intrathecal catheter, attached to a geared Hamilton 100 μl glass syringe. IT drug delivery was monitored by observing the advancement of a small air bubble down the tubing.
Rats were placed in a plastic cage with an open wire mesh bottom and allowed to accommodate for approximately fifteen minutes. […] In brief, von Frey hairs were sequentially applied using an up-and-down paradigm to the left mid-plantar hindpaw with sufficient force to cause slight filament buckling. Positive responses were noted if the paw was sharply withdrawn. […] Otherwise, PWT were calculated by noting the stimulus level at which the first change in behavior occurred, collecting four additional responses to the continued up-and-down oscillation of stimulus presentation around the response threshold, and interpolating the 50% response threshold. […] The following equation was used to compute %MPE: [formula]
Plasma drug levels and PWT were correlated using linear regression. Serially measured PWT and %MPE were compared using repeated measures ANOVA.

[6] = tested on: tactile allodynia (paw withdrawal thresholds); assay: Mechanical allodynia after single i.p. dose in SD rats (left L5/L6 spinal nerve ligation); format: in vivo

CCN(CC)CC(=O)Nc1c(C)ccc(O)c1C [3-OH L, 3-hydroxylidocaine]
production of 3-OH L in humans [1]: humans do produce some 3-OH L
production of 3-OH L in humans ([1]; listed as 3-OHL): very small quantities
duration of significant effect on allodynia, DA rats ([2]; 3-OHL 15 mg/kg i.p., N=5, P<0.002, followed for 7 days): up to 7 days
effect on tactile allodynia, DA rats ([2]; single i.p. dose, lidocaine 60 mg/kg, 3-OHL 15 mg/kg (P<0.002)): persistently reduced allodynia in both strains; also recorded: persistent suppression of allodynia
enzyme producing the metabolite 3-OH L (P450 PA(P45OIA2) enzyme): produced by the P450 PA(P45OIA2) enzyme
PWT after infusion ([3]; 3-OH L IV in DMSO, 20 mg/kg total (FIG. 2), N=4, baseline 1.57±0.5 g, P=<0.0001): 15 ± 0 g
duration of effect on allodynia, IV route ([3]; IV): not by the IV route
potency and onset of allodynia suppression relative to lidocaine ([3]; IV 3-OH L compared with parent compound): more potent with regard to this effect; also recorded: far more rapid onset
allodynia suppression by IV delivery ([3]; IV, N=4): highly active when administered intravenously; also recorded: both potent and effective at suppressing allodynia; also recorded: complete normalization
3-hydroxylation / production of 3-OH L in rats [4]: Some species of rats predominantly produce 3-OH L
highest dose soluble in the vehicle (Solubility): 58 µg
persistence of allodynia suppression after single IT dose ([5]; 3-OH L 58 μg IT single dose, follow-up period): 5 days
thresholds at 5 days post treatment ([5]; 3-OH L 58 μg IT, N=6, baseline 2.7±0.2, vehicle 2.2±0.5, P=0.0008, unit not given): 9.3±2.5
PWT at 60 minutes after IT treatment ([5]; 3-OH L 58 μg IT, baseline 2.3±0.39 g, P<0.0001): 10.66 ± 2.3 g
duration of effect on allodynia, IT route ([5]; IT): long lasting effect by the IT route
effect on allodynia thresholds after IT delivery ([5]; IT, lidocaine 500 μg, MEGX 500 μg, 3-OH L 58 μg): suppressed allodynia after IT administration; also recorded: significantly effective at suppressing allodynia
duration of significant effect on allodynia, SD rats ([6]; 3-OHL 15 mg/kg i.p., N=6, P<0.05, followed for 7 days): up to 7 days
magnitude and duration of effect of 15 mg/kg 3-OHL relative to 60 mg/kg lidocaine in SD rats ([6]; i.p. (FIG. 7)): apparently shorter duration
effect on tactile allodynia, SD rats ([6]; single i.p. dose, lidocaine 60 mg/kg, 3-OHL 15 mg/kg (P<0.05)): persistently reduced allodynia in both strains; also recorded: persistent suppression of allodynia
